One block for each compound: values may come before it. Residues, ends and D or L forms follow the SMILES beside them.
How the values were obtained:
Format in all cases: cell-based, human
HSC-4 cells [1] = assay: MTT growth inhibition assay, HSC-4 cells; settings: 48 h
Protocol: (§1) Concentration- and time-dependent effects on cell growth inhibition were measured using the MTT [3-(4,5-dimethylthiazol-2-yl)−2,5-diphenyltetrazolium bromide] assay. 5000 cells/well were seeded in 96-well plate and were treated with peptides for 48h. Cells were incubated with MTT (1.25 mg/ml) for 2 hours at 37°C. The blue formazan crystals were solubilized in isopropanol and read at 595 nm.
IC50 value for HSC-4 cells and MDA-MB-231cells were calculated with Dose-response model. Analysis of dose-response data is made available through the ‘drc’ package in R environment for statistical computing. […] The statistical significance between two groups was analyzed using Students paired two-tailed t-test.
Figure 1 SSTP1 induces apoptosis in oral cancer cells (A) HSC-4 cells were treated with peptides SSTP1 and SSTP2 at different concentrations in 0.5% DMEM for 48 h, and MTT assay was performed to calculate % growth inhibition. […] (C)The quantified populations are represented in the graph. […] (D) The HSC-4 cells treated with 10 μM SSTP1 or SSTP2 for indicated time intervals were used for western blot analyses (E) Densitometric analysis was done for the bands, and fold change based on 0min was calculated. […]

MDA-MB-231 cells = settings: 48 h
Protocol: as §1
IC50 value for HSC-4 cells and MDA-MB-231cells were calculated with Dose-response model. Analysis of dose-response data is made available through the ‘drc’ package in R environment for statistical computing. The “drm” function in the package “drc” is a general model fitting function for analysis of concentration/dose/time-effect/response data and the four parameter a log-logistic model was fitted for estimating the slope, lower, upper and IC50 values. […] The statistical significance between two groups was analyzed using Students paired two-tailed t-test.
Figure 10 Sensitivity of cancer cells to SSTP1 depends on the level of IL6Rα. […] (C) Growth inhibition analyzed by MTT assay using 10 μM SSTP1 treated for 48h. (D) Growth inhibitory curve of SSTP1 for MDA-MB-231 cells and HEK-293 cells analyzed after 48h treatment with SSTP1 and Hemolysis induced by SSTP1 on human RBC. […] (F) The blots were quantified using ImageJ, and the graphs were plotted. *p < .05, **p < .01, ***p < .001.

HSC-4 cells [2] = assay: MTT growth inhibition by SSTP1 with or without IL6 pathway inhibitors; settings: 4h SSTP1 (10 μM), pre-treatment LMT-28 60 μM 1.5 h, Anti-IL6Rα 10µg/ml 2h, SC144 40 μM 2h
Protocol: as §1
Figure 8 SSTP1-induced pcJUN activation depends on JNK and on gp130 and IL6Rα. (A) HSC-4 cells treated with SSTP1 (30 minute) and the indicated inhibitors were used for western blot analysis of the indicated molecules (B) Densitometric analysis was done for the bands of (a) and relative phosphorylation based on untreated is plotted. (C) The cells treated with SSTP1 (30 minutes) and IL6Rα antibody or SC144 were used for western blot analysis of the indicated molecules. (D) Densitometric analysis was done for the bands of (C) and relative phosphorylation based on untreated is plotted. (E) Growth inhibition analyzed by MTT assay after 4h treatment with SSTP1(10 μM) with or without the inhibitors. LMT-28 (60 μM). For all the experiments SSTP1 (10 μM) was used with or without LMT-28 (60 μM), Ruxolitinib (30 μM) or SP600125 (20 μM), Anti-IL6Rα (10µg/ml) or SC144 (40 μM). […]

- IC50 (MDA-MB-231 cells): 4.5 µM
Structure (SMILES): CC[C@H](C)[C@H](NC(=O)[C@H](CC(C)C)NC(=O)[C@H](CC(C)C)NC(=O)[C@@H]1CCCN1C(=O)[C@H](CC(C)C)NC(=O)[C@@H](N)Cc1ccccc1)C(=O)N[C@@H](CO)C(=O)N[C@@H](C)C(=O)N[C@@H](CC(C)C)C(=O)N[C@H](C(=O)N[C@@H](CO)C(=O)N[C@@H](CC(C)C)C(=O)N[C@@H](Cc1ccccc1)C(=O)N1CCC[C@H]1C(=O)N[C@@H](CCCCN)C(=O)N[C@@H](CC(C)C)C(=O)NCC(=O)N[C@@H](CCCCN)C(=O)O)[C@@H](C)O [SSTP1] (H-FLPLLISALTSLFPKLGK-OH)
- IC50 (HSC-4 cells [1]): 10.2 µM

Structure (SMILES): O=C(NNc1nc2cc(F)ccc2n2cccc12)c1cnccn1 [SC144]
- effect on SSTP1-induced growth inhibition (HSC-4 cells [2]): significantly inhibited

Structure (SMILES): CC[C@H](C)[C@H](NC(=O)[C@H](CCCNC(=N)N)NC(=O)[C@H](CCCNC(=N)N)NC(=O)[C@@H]1CCCN1C(=O)[C@H](CC(C)C)NC(=O)[C@@H](N)Cc1ccccc1)C(=O)N[C@@H](CO)C(=O)N[C@@H](C)C(=O)N[C@@H](CCCNC(=N)N)C(=O)N[C@H](C(=O)N[C@@H](CO)C(=O)N[C@@H](CC(C)C)C(=O)N[C@@H](Cc1ccccc1)C(=O)N1CCC[C@H]1C(=O)N[C@@H](CCCCN)C(=O)N[C@@H](CCCNC(=N)N)C(=O)NCC(=O)N[C@@H](CCCCN)C(N)=O)[C@@H](C)O [SSTP2] (H-FLPRRISARTSLFPKRGK-NH2)
- cytotoxicity (growth inhibition) in words (HSC-4 cells [1]; HSC-4 cells, MTT): negligible cytotoxicity

Source: paper PMC8639500, “SSTP1, a Host Defense Peptide, Exploits the Immunomodulatory IL6 Pathway to Induce Apoptosis in Cancer Cells” (Frontiers in Immunology, 2021)
